From ChEMBL document CHEMBL1201862, “PubChem BioAssay data set” (2004)
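48-hour exposure; five concentrations; linearly interpolated endpoints. The concentration for 50% growth inhibition is given as GI50.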 Calls of active or inactive are those of the source. Rule as the data show it: active = GI50 up to about 1.1 µM and inactive = higher.

Tests used:
Assay in all cases: growth of human tumour cells (NCI), 48 h
HL-60 = tested on: HL-60
KM12 = tested on: KM12
OVCAR-4 = tested on: OVCAR-4
COLO 205 = tested on: COLO 205
786-0 = tested on: 786-0
NCI-H226 = tested on: NCI-H226
MOLT-4 = tested on: MOLT-4
M14 = tested on: M14
NCI-H522 = tested on: NCI-H522
HOP-62 = tested on: HOP-62
OVCAR-3 = tested on: OVCAR-3
UACC-257 = tested on: UACC-257
SK-MEL-28 = tested on: SK-MEL-28
A549 = tested on: A549
HT-29 = tested on: HT-29
OVCAR-5 = tested on: OVCAR-5
RXF 393 = tested on: RXF 393
SW-620 = tested on: SW-620
TK-10 = tested on: TK-10

Measured: GI50

OCCCCCNc1ccnc2cc(Cl)ccc12
inactive: HL-60 22 µM | KM12 > 100 µM | OVCAR-4 > 100 µM | COLO 205 33.7 µM | 786-0 > 100 µM | NCI-H226 74.5 µM | MOLT-4 24.6 µM | M14 > 100 µM | NCI-H522 87.5 µM | HOP-62 > 100 µM | OVCAR-3 65.5 µM | UACC-257 > 100 µM | SK-MEL-28 > 100 µM | A549 > 100 µM | HT-29 29.2 µM | OVCAR-5 83.2 µM | RXF 393 > 100 µM | SW-620 > 100 µM

Sc1nnc(-c2ccccc2)n1/N=C\c1ccc(-c2ccc(Cl)cc2)o1
inactive: HL-60 > 100 µM | KM12 > 100 µM | OVCAR-4 > 100 µM | COLO 205 > 100 µM | 786-0 > 100 µM | NCI-H226 > 100 µM | MOLT-4 > 100 µM | M14 > 100 µM | NCI-H522 > 100 µM | HOP-62 > 100 µM | OVCAR-3 > 100 µM | TK-10 > 100 µM | UACC-257 > 100 µM | SK-MEL-28 > 100 µM | A549 > 100 µM | HT-29 > 100 µM | OVCAR-5 > 100 µM | SW-620 > 100 µM

CN(C)CC1CCCC/C1=N/OC(=O)c1ccc(Cl)c(Cl)c1 (centres undefined)
inactive: HL-60 > 100 µM | KM12 > 100 µM | OVCAR-4 > 100 µM | COLO 205 > 100 µM | 786-0 > 100 µM | NCI-H226 > 100 µM | M14 > 100 µM | NCI-H522 > 100 µM | HOP-62 > 100 µM | OVCAR-3 > 100 µM | TK-10 > 100 µM | UACC-257 > 100 µM | SK-MEL-28 > 100 µM | A549 > 100 µM | HT-29 > 100 µM | OVCAR-5 > 100 µM | RXF 393 > 100 µM | SW-620 > 100 µM

CC(=O)ON(C(C)=O)C1C(COC(c2ccccc2)(c2ccccc2)c2ccccc2)OC2OC3(CCCC3)OC21 (centres undefined)
inactive: HL-60 3.32 µM | KM12 5.09 µM | OVCAR-4 7.8 µM | COLO 205 > 23.2 µM | 786-0 30.9 µM | NCI-H226 9.16 µM | MOLT-4 3.15 µM | M14 7.18 µM | NCI-H522 2.46 µM | HOP-62 11.6 µM | OVCAR-3 5.37 µM | TK-10 > 81.7 µM | UACC-257 11.6 µM | SK-MEL-28 > 100 µM | A549 4.59 µM | HT-29 > 26.6 µM | OVCAR-5 > 100 µM | RXF 393 4.44 µM | SW-620 8.63 µM

CN(C)CN(C)c1nc(N(C)C)nc(N(C)C)n1
inactive: HL-60 > 100 µM | KM12 > 100 µM | OVCAR-4 > 100 µM | COLO 205 > 100 µM | 786-0 > 100 µM | MOLT-4 > 100 µM | M14 > 100 µM | NCI-H522 > 100 µM | HOP-62 > 100 µM | OVCAR-3 > 100 µM | TK-10 > 100 µM | UACC-257 > 100 µM | SK-MEL-28 > 100 µM | A549 > 100 µM | HT-29 > 100 µM | OVCAR-5 > 100 µM | RXF 393 61.1 µM | SW-620 > 100 µM

CCCCCCCCCCCCCCCCc1c(C(=O)OC)[nH]c(=S)[nH]c1=O
inactive: HL-60 > 50 µM | KM12 > 50 µM | OVCAR-4 > 50 µM | COLO 205 > 50 µM | 786-0 > 50 µM | MOLT-4 > 50 µM | M14 > 50 µM | NCI-H522 > 50 µM | HOP-62 > 50 µM | OVCAR-3 > 50 µM | TK-10 > 50 µM | UACC-257 > 50 µM | SK-MEL-28 > 50 µM | A549 > 50 µM | HT-29 > 50 µM | OVCAR-5 > 50 µM | RXF 393 > 50 µM | SW-620 > 50 µM

O=Cc1cc2sc(C=O)cc2s1
inactive: HL-60 > 100 µM | KM12 > 100 µM | OVCAR-4 > 100 µM | COLO 205 > 100 µM | 786-0 > 100 µM | NCI-H226 26.1 µM | MOLT-4 > 100 µM | M14 > 100 µM | NCI-H522 93.3 µM | HOP-62 > 100 µM | OVCAR-3 > 100 µM | TK-10 > 100 µM | UACC-257 > 100 µM | A549 > 100 µM | HT-29 > 100 µM | OVCAR-5 > 100 µM | RXF 393 > 100 µM | SW-620 > 100 µM

CC1=NC(C(C)C)C(=O)O1 (centres undefined)
inactive: HL-60 > 100 µM | KM12 > 100 µM | OVCAR-4 > 100 µM | COLO 205 72.3 µM | 786-0 58.1 µM | NCI-H226 > 100 µM | MOLT-4 > 100 µM | M14 > 100 µM | NCI-H522 > 100 µM | HOP-62 > 100 µM | OVCAR-3 > 100 µM | TK-10 > 100 µM | UACC-257 > 100 µM | SK-MEL-28 > 100 µM | HT-29 61.1 µM | OVCAR-5 > 100 µM | SW-620 13.1 µM

O=C(O)C(CS)Nc1c2ccccc2[n+]([O-])c2ccccc12 (centres undefined)
inactive: HL-60 50.2 µM | KM12 > 100 µM | OVCAR-4 > 100 µM | COLO 205 > 100 µM | 786-0 > 100 µM | NCI-H226 > 100 µM | MOLT-4 > 100 µM | M14 > 100 µM | NCI-H522 56.9 µM | HOP-62 > 100 µM | OVCAR-3 > 100 µM | TK-10 > 100 µM | UACC-257 > 100 µM | SK-MEL-28 > 100 µM | A549 > 100 µM | HT-29 > 100 µM | OVCAR-5 > 100 µM | SW-620 > 100 µM

Cc1ccc2ccc(-c3ccccc3)c3c2c1C(=O)c1ccccc1C3=O
inactive: HL-60 > 100 µM | KM12 > 100 µM | COLO 205 > 100 µM | 786-0 36.5 µM | NCI-H226 > 100 µM | MOLT-4 > 100 µM | M14 79.8 µM | NCI-H522 36.1 µM | HOP-62 54.3 µM | OVCAR-3 71.8 µM | TK-10 > 100 µM | UACC-257 > 100 µM | SK-MEL-28 > 100 µM | A549 > 100 µM | HT-29 > 100 µM | OVCAR-5 > 100 µM | RXF 393 61 µM | SW-620 > 100 µM

CSC1=NC=CCN1C
inactive: HL-60 > 100 µM | KM12 > 100 µM | OVCAR-4 > 100 µM | COLO 205 > 100 µM | 786-0 > 100 µM | NCI-H226 > 100 µM | MOLT-4 > 100 µM | M14 > 100 µM | NCI-H522 > 100 µM | HOP-62 > 100 µM | OVCAR-3 > 100 µM | TK-10 > 100 µM | UACC-257 > 100 µM | SK-MEL-28 > 100 µM | A549 > 100 µM | HT-29 > 100 µM | OVCAR-5 > 100 µM | SW-620 > 100 µM

CCCCCCCC/C=C1\CCC(CN(C)C)C1=O (centres undefined)
inactive: HL-60 5.05 µM | KM12 2.31 µM | OVCAR-4 13.7 µM | COLO 205 4.16 µM | 786-0 1.53 µM | NCI-H226 22.3 µM | MOLT-4 2.68 µM | M14 4.88 µM | NCI-H522 3.54 µM | HOP-62 12.2 µM | OVCAR-3 7.18 µM | TK-10 2.54 µM | UACC-257 5.89 µM | SK-MEL-28 3.89 µM | A549 19.3 µM | HT-29 4.35 µM | OVCAR-5 20.2 µM | SW-620 3.33 µM

COC1C(O)C(C)OC(O[C@H]2CC[C@@]3(C)C(CC[C@@H]4[C@@H]3CC[C@]3(C)[C@@H](C(C)OC5OC(CO)C(O)C(O)C5O)CC[C@]43O)C2)C1O (some centres undefined)
inactive: HL-60 > 25 µM | KM12 > 25 µM | OVCAR-4 > 25 µM | 786-0 > 25 µM | NCI-H226 > 25 µM | MOLT-4 > 25 µM | M14 > 25 µM | NCI-H522 > 25 µM | HOP-62 > 25 µM | OVCAR-3 > 25 µM | TK-10 > 25 µM | UACC-257 > 25 µM | SK-MEL-28 > 25 µM | A549 > 25 µM | HT-29 > 25 µM | OVCAR-5 > 25 µM | SW-620 > 25 µM

O=S(O)CCCCSSCc1ccccc1CSSCCCCS(=O)O
active: MOLT-4 0.904 µM
inactive: HL-60 5.69 µM | KM12 19 µM | OVCAR-4 4.21 µM | COLO 205 15.5 µM | 786-0 > 100 µM | M14 10.3 µM | NCI-H522 4.43 µM | HOP-62 35.3 µM | OVCAR-3 10.5 µM | TK-10 43.4 µM | UACC-257 3.87 µM | SK-MEL-28 13.1 µM | A549 28.8 µM | HT-29 8.34 µM | OVCAR-5 95.1 µM | RXF 393 7.94 µM | SW-620 25.8 µM

C=C[C@@]1(C)CCC2(O)C(CCC3C2(C)CCC[C@@]3(C)COC(=O)CC(=O)OC)C1 (some centres undefined)
inactive: HL-60 19.2 µM | KM12 18.1 µM | OVCAR-4 17.5 µM | 786-0 35.6 µM | NCI-H226 26.2 µM | MOLT-4 17.2 µM | M14 18.1 µM | NCI-H522 16.3 µM | HOP-62 18.5 µM | OVCAR-3 17.3 µM | TK-10 18.7 µM | UACC-257 20.2 µM | SK-MEL-28 17 µM | A549 17.6 µM | HT-29 18.9 µM | OVCAR-5 20.1 µM | RXF 393 23.7 µM | SW-620 17.6 µM
